ChEMBL document CHEMBL1143893, “Novel nitroheterocyclic hypoxic markers for solid tumor: synthesis and biological evaluation” (Bioorg Med Chem, 2008)

Assay: Drug level in Chinese hamster V79 379A cells at 0.1 mM after 3.5 hrs by fluorescence microplate reader relative to control
Type: ADME, cell-based, Cricetulus griseus
Settings: 100 µM

Row | Fold change | Structure (SMILES)
1 | 6 | O=[N+]([O-])c1ccc2nc3c(nc2c1)-c1cccc2c([N+](=O)[O-])ccc-3c12
2 | 11 | CN(C)CCNc1ccc2c3c(cccc13)-c1nc3cc([N+](=O)[O-])ccc3nc1-2
3 | 9 | CN1CCN(c2ccc3c4c(cccc24)-c2nc4cc([N+](=O)[O-])ccc4nc2-3)CC1
